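Briefly, cells in 96-well plates were exposed to five compound concentrations for 48 h, and endpoints were estimated by linear interpolation. GI50: concentration for 50% inhibition of growth. TGI: total growth inhibition.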
Assays:
Assay in all cases: DTP human tumour cell line panel, 48 h
[1] = system: BT-549 breast
[2] = system: HL-60(TB) leukemia
[3] = system: K-562 leukemia
[4] = system: KM12 colon
[5] = system: SF-295 CNS
[6] = system: SK-OV-3 ovarian
[7] = system: T-47D breast
[8] = system: U251 CNS
[9] = system: UACC-62 melanoma

| SMILES | TGI [1] | TGI [2] | TGI [3] | TGI [4] | TGI [5] | TGI [6] | TGI [7] | TGI [8] | TGI [9] | GI50 [1] | GI50 [2] | GI50 [4] | GI50 [5] | GI50 [6] | GI50 [7] | GI50 [8] | GI50 [9] | GI50 [3] |
| --- | --- | --- | --- | --- | --- | --- | --- | --- | --- | --- | --- | --- | --- | --- | --- | --- | --- | --- |
| Cc1ccc(-n2cc(-c3ccc(Cl)cc3)c3c(NNC(=S)NCc4ccccc4)ncnc32)cc1 | 83 µM | > 100 µM | > 100 µM | 20 µM | 55.4 µM | 82 µM | > 100 µM | 48.6 µM | 64.8 µM |  |  |  |  |  |  |  |  |  |
| CC1=CC(=O)C[C@]2(C)[C@@H](O)CC(C(C)CO)C[C@@H]12 (stereo not given in full) | > 100 µM | > 100 µM |  | > 100 µM | > 100 µM | > 100 µM | > 100 µM | > 100 µM | > 100 µM |  |  |  |  |  |  |  |  |  |
| CC1(C)CC(=O)C2=C(C1)OC1=C(CC(C)(C)CC1=O)C2c1ccccc1Cl (stereo not given) |  | > 100 µM | > 100 µM |  | > 100 µM | > 100 µM | > 100 µM | > 100 µM | > 100 µM |  |  |  |  |  |  |  |  |  |
| O=C(C(Cl)=C(Nc1ccccc1)Nc1ccccc1)C(Cl)Cl | > 100 µM | 51.9 µM | 86.4 µM | > 100 µM | > 100 µM | 94.6 µM | 75.9 µM |  | 54.1 µM |  |  |  |  |  |  |  |  |  |
| C=CC(C)(C)c1cc([C@@H]2COc3cc(O)ccc3C2=O)c(O)c(OC)c1OC | 25.1 µM | 44.2 µM | > 100 µM | 27.8 µM | 27.5 µM | 36.7 µM | 35.2 µM | 26.8 µM | 27.5 µM |  |  |  |  |  |  |  |  |  |
| COC[C@H](Cc1ccccc1)N=Cc1ccccc1 | > 100 µM |  | > 100 µM | > 100 µM | > 100 µM | > 100 µM | > 100 µM | > 100 µM | > 100 µM |  |  |  |  |  |  |  |  |  |
| N#Cc1c(C#N)c(-c2ccco2)n(/N=C/c2ccco2)c1N | > 100 µM | > 100 µM | > 100 µM | > 100 µM | > 100 µM | > 100 µM | > 100 µM | 60.3 µM | > 100 µM |  |  |  |  |  |  |  |  |  |
| O=C(CSCC(=O)N/N=C\c1cc(Br)cc(Br)c1O)N/N=C\c1cc(Br)cc(Br)c1O | > 100 µM |  | 80.1 µM | > 100 µM | > 100 µM | > 100 µM | > 100 µM | 22.3 µM | 39.7 µM |  |  |  |  |  |  |  |  |  |
| O=S(=O)(CC#CCS(=O)(=O)c1ccccc1)c1ccccc1 | 11.8 µM | 16.1 µM |  | 28.1 µM | 43.6 µM | 27.5 µM |  | 24.5 µM | 11.5 µM |  |  |  |  |  |  |  |  |  |
| COc1ccc2c(c1)CCC1C2CCC2(C)C1CC[C@@]2(O)CNC(=O)/C=C/c1ccc(O)c(O)c1 (stereo not given in full) | > 100 µM | 3.97 µM |  | 7.82 µM | > 100 µM | > 100 µM | > 100 µM | 4.41 µM | 5.63 µM | 3.95 µM | 0.595 µM | 2.44 µM | 3.54 µM | 14.8 µM | 3.15 µM | 1.65 µM | 2.24 µM |  |
| CCO/C=N/C1=C(C#N)C(c2ccc(OC)c(OC)c2)c2c(-c3ccccc3)nn(-c3ccccc3)c2O1 (stereo not given) | 23.8 µM | 8.85 µM | 27 µM | 22.1 µM | 30.7 µM | 60.2 µM | 60.5 µM | 26.8 µM | 27.6 µM |  |  |  |  |  |  |  |  |  |
| Clc1ccc(CCN2CCN(CCCc3ccccc3)CC2)cc1Cl | 29.4 µM | 44.7 µM | > 100 µM | 32.1 µM | 30 µM | 35.1 µM | 35.1 µM | 31.9 µM | 31.5 µM |  |  |  |  |  |  |  |  |  |
| Clc1ccc(CCn2ccc3ccccc32)c(Cl)c1 | > 100 µM | > 100 µM | > 100 µM | > 100 µM | > 100 µM | > 100 µM |  | > 100 µM | > 100 µM |  |  |  |  |  |  |  |  |  |
| CN(C)CCCn1c2c(c3ccncc3c1=O)C(=O)c1ccccc1-2 | 13.1 µM | 8.66 µM | 12.3 µM | 11.5 µM | 10.3 µM | 65 µM | 21 µM | 15.3 µM | 3.74 µM | 2.09 µM | 0.858 µM | 0.641 µM | 1.06 µM | 12.1 µM | 1.67 µM | 0.757 µM | 1.22 µM | 0.573 µM |
| CC(C)Oc1c(O)c2c3c(oc(=O)n3C=CC2c2ccccc2F)c1OC(C)C (stereo not given) |  | 44.3 µM | > 100 µM | > 100 µM | 78.1 µM | > 100 µM |  | > 100 µM | > 100 µM |  |  |  |  |  |  |  |  |  |
| CCOC(=O)C1(C/C=C\CBr)CCCCCCC1=O (stereo not given) | > 100 µM | > 100 µM |  | > 100 µM | > 100 µM | > 100 µM | > 100 µM | > 100 µM | > 100 µM |  |  |  |  |  |  |  |  |  |
| CC(=O)CC(=O)Nn1c(-c2cccs2)nc2ccc(I)cc2c1=O | > 71 µM | > 100 µM | > 100 µM | > 100 µM | > 100 µM | > 100 µM | > 100 µM | > 100 µM | > 85 µM |  |  |  |  |  |  |  |  |  |
| OB1OCc2ccccc21 | > 100 µM | > 100 µM | > 100 µM | > 100 µM | 40.9 µM | 47.1 µM | > 100 µM | > 100 µM | > 100 µM |  |  |  |  |  |  |  |  |  |
| O=C1c2c(ccc3c2CCCC3)CC12Cc1ccccc1C2 | > 100 µM | 38.8 µM | > 48.2 µM | 59.9 µM | > 100 µM | > 100 µM | > 100 µM | > 100 µM | > 100 µM |  |  |  |  |  |  |  |  |  |
| COC(=O)C1(C(=O)OC)CC2=C(S(=O)(=O)c3ccccc3)C[C@@H](C#N)[C@H]2C1 | > 100 µM | > 100 µM | > 100 µM | > 100 µM | > 100 µM | > 100 µM |  | > 100 µM |  |  |  |  |  |  |  |  |  |  |
| CCCCCCCCCCCCCCCCCc1nc(C#N)c(N)o1 |  | 69.6 µM | > 100 µM | > 100 µM |  | > 100 µM |  | > 100 µM | > 100 µM |  |  |  |  |  |  |  |  |  |
| C=C(Cl)C(Cl)(CBr)CCC(Cl)C(C)C (stereo not given) | 27.9 µM |  | > 100 µM | 6.11 µM | 6.48 µM | > 89.5 µM | 0.411 µM | 1.88 µM | 14 µM |  |  |  |  |  |  |  |  |  |
| Fc1ccccc1N=c1oc2ccc(Br)cc2cc1-c1nc2ccccc2[nH]1 | 26.7 µM | > 100 µM | > 100 µM | > 54.9 µM | 23.2 µM | 32.9 µM | > 100 µM | 20.1 µM | 51.5 µM |  |  |  |  |  |  |  |  |  |

From PubChem BioAssay (NCI)
